Laboratory results: patent publication US12570643B2, “3-aryloxy-3-five-membered heteroaryl propylamine compound, and crystal form and use thereof” (Shanghai Leado Pharmatech Co. Ltd., priority 2019, dated 2026)

Assays:
HepG2 cells = test: Hepatocyte toxicity (CCK-8 cytotoxicity test); format: cell-based; details: Homo sapiens, 72 hours, read-out: hepatotoxicity (IC50)
Description: (§1) HepG-2 and SH-SY5Y cells were prepared and placed in 10 cm dish and incubated at 37° C., 5% CO2 in a cell incubator; the cells were digested with trypsinize, resuspended and then counted. Based on a system of 100 μl/well, 8000 cells were transferred to a 96-well plate. The cells were incubated in a 37° C., 5% CO2 cell incubator for 24 hours; a gradient concentration system of compound I-1 (prepared in Example 2) was prepared, 2 times diluted, the system was 100 μl/well. The supernatant in the 96-well plate cell culture system on the first day was removed, and a fresh prepared drug concentration system was added to the corresponding culture plate wells culturing cells (set up duplicate wells). […] After completion of the culture, the supernatant was removed from the cell culture system of the 96-well plate, 100 μl of detection solution (medium containing 10% CCK-8) was add to each well, and incubated in a cell incubator at 37° C. and 5% CO2 for 1 hour, then taken it out and measured the absorbance at 450 nm with a microplate reader. Data were processed, cytotoxicity was calculated, and IC50 was calculated by GraphPad Prism. […]
(§2) A (dosing): absorbance of the well having cells, CCK-8 solution and drug solution
(§3) A (blank): absorbance of the well having medium and CCK-8 solution, without cells.
(§4) A (0 dosing): absorbance of the well having cells and CCK-8 solution, without drug solution […]

[1] = Neurocytotoxicity (CCK-8 cytotoxicity test); format: cell-based; details: human, SH-SY5Y cells
Description: as §1, §2, §3, §4

[2] = tested on: formalin pain model in mice; test: Formalin pain model in mice; format: in vivo, C57BL/6 mice
Description: 150 C57BL/6 mice (male, 9 weeks) were randomly divided into 15 groups with 10 mice for each group, and were used for the analgesic activity test of 3 compounds in the formalin pain model in mice: the compound I-1 group (compound I-1 prepared in Example 2, its hydrochloride was used in the experiment), the S-duloxetine group (its hydrochloride was used in the experiment) and the compound C1 group (compound C1 prepared in Comparative Example 1, its hydrochloride was used in the experiment), respectively. Before the start of the experiment, the mice were allowed to adapt to the experimental environment for 72 hours, during which there was no need to fast for food or water. The tested drugs were administrated by intraperitoneal injection, and the doses were as follows: • The compound I-1 group: blank Vehicle (blank normal saline control), 0.1 mg/kg, 0.5 mg/kg, 1 mg/kg, 5 mg/kg and 10 mg/kg; • The S-duloxetine group: blank Vehicle (blank normal saline control), 1 mg/kg, 5 mg/kg, 10 mg/kg and 20 mg/kg; • The Compound C1 group: blank Vehicle (blank normal saline control), 0.1 mg/kg, 0.5 mg/kg, 1 mg/kg, 5 mg/kg and 10 mg/kg.
After the administration, the mice were placed in a transparent, ventilated plexiglass cylinder, and 1 hour later, 20 μl of 4% formalin solution was injected into the left hind foot plantar of each group of mice with a micro-injector, and foot pain response in mice were recorded in real time with a miniature camera. The length of time of licking the left foot was used as an indicator of pain response, the licking time were observed and recorded during two periods of 0-10 min (phase I) and 10-60 min (phase II) respectively, for statistical analysis, and the half effective dose (ED50) of the 3 compounds were calculated: ED50 refers to the drug dose that reduces the licking time by half compared with the blank control group. The smaller the ED50 value is, the lower the effective analgesic dose of the compound is and the better its analgesic effect is.

SNL model in rat = test: SNL model in rat, mechanical hyperalgesia test; format: in vivo, SD rats; details: 10 mg/kg intragastric, 1 hour after administration, hydrochloride used; control group 3.967 ± 0.775
Description: SD rats were taken for surgery, male, SPF grade, mass 150 g-180 g. The surgical procedure was performed aseptically. The animals were anesthetized with sodium pentobarbital (50 mg/kg, intraperitoneal injection). The surgical area of the waist of animals was shaved, and the skin was disinfected three times with iodophor and 70% ethanol. Start the operation after the skin was dry. A longitudinal incision was made in the posterior part of the sacral bone of the animal's waist with a scalpel to expose the left paravertebral muscles, and the muscle tissue was separated with a distractor to expose the vertebra. The left spinal nerves L5 and L6 were separated, ligated with 6-0 silk thread, and the wounds were sutured. After the surgery, the animals were placed on an electric blanket and injected subcutaneously with 5 mL normal saline to prevent dehydration. When the animal was completely awake (free to move), put the animal back into the cage.
After the surgery, the animals were adapted in the experimental environment for 15 minutes/day for 3 days.
After administration, mechanical hyperalgesia test was performed. The rats were placed individually in a plexiglas box with a grid at the bottom of the box to ensure that the feet of the rats can be tested. Rats would adapt for 15 minutes before the test. […] The rapid paw withdrawal of the animal during the test was recorded as a pain response. The paw withdrawal of the animal when the test fiber left the animal's skin was also recorded as a pain response. If the animal moved or walked, it will not be recorded as a pain response, the test should be repeated. […]
Mechanical hyperalgesia was expressed as the paw withdrawal threshold (PWT) in the behavioral test of rats, which was calculated according to the following equation: 50% response threshold (g)=(10(^Xf+kδ))/10,000 • Xf=the final test fiber value used in the test • K=table value • δ=Average difference
Data were collected using Excel software and analyzed using Prism 6.01 (Graph pad software, Inc.) software.

Q: For `CNCC[C@@H](Oc1cccc2ccoc12)c1cccs1` [Compound I-1, (R)-3-(benzofuran-7-yloxy)-N-methyl-3-(thiophen-2-yl)propan-1-amine], which IC50 (HepG2 cells) is on record?
A: ~114 µM

Q: And the IC50 at 72 h [1]?
A: ~101 µM

Q: And the ED50 ([2]; Mus musculus, ip, intraperitoneal, phase II (10-60 min), dose that halves licking time vs blank control, read-out: analgesic potency ED50 in phase II pain)?
A: 0.26 mg/kg

Q: What about the “ED50 times stronger than that of C1 compound” value ([2]; phase II pain, formalin model in mice) of the same compound?
A: 8.5 times

Q: What about the “PWT” value (SNL model in rat) of the same compound?
A: 7.869 ± 2.846 g
